Measured values: ChEMBL document CHEMBL4316621, “A potent seven-membered cyclic BTK (Bruton's tyrosine Kinase) chiral inhibitor conceived by structure-based drug design to lock its bioactive conformation” (Bioorg Med Chem Lett, 2019)
Values after ≈ are worked out from the molar mass of the structure shown.

Experiments:
[1] = target: T1, Tyrosine-protein kinase BTK (Homo sapiens, UniProt Q06187); experiment: Inhibition of Kinase Tracer 178 binding to biotinylated-BTK (unknown origin) measured after 18 to 24 hrs by Europium-labeled Streptavidin conjugate based TR-FRET assay
T1 sequence (Q06187 whole entry): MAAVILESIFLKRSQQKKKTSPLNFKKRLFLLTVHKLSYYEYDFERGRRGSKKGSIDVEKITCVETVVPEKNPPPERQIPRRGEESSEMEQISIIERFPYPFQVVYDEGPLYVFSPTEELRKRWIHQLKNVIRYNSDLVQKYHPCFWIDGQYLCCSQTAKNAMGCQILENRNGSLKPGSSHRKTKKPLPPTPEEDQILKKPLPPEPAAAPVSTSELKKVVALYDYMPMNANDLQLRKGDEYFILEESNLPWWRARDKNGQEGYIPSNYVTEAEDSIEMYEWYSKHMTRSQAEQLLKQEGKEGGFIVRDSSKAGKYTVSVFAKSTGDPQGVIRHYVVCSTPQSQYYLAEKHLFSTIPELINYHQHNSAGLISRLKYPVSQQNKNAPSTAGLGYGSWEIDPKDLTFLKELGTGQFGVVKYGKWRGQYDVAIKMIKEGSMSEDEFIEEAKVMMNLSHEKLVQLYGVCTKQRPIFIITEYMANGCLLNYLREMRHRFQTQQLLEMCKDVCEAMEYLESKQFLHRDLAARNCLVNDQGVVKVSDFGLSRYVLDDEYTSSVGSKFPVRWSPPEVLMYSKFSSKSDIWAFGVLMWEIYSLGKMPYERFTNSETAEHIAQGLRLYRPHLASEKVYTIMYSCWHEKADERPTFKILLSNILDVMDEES

[2] = target: T1, Tyrosine-protein kinase BTK; experiment: Inhibition of BTK in goat F(ab')2 anti-human IgM-stimulated human whole blood assessed as suppression of CD69 expression on B cells pretreated for 30 mins followed by goat F(ab')2 anti-human IgM-stimulation and measured after 20 hrs by flow cytometry; format: tissue-based
[3] = Intrinsic clearance in human liver microsomes at 1 uM preincubated for 1 hr followed by NADPH addition and measured by LC/MS/MS analysis; format: ADME, Microsome; details: read-out: CLH
[4] = Intrinsic clearance in rat liver microsomes at 1 uM preincubated for 1 hr followed by NADPH addition and measured by LC/MS/MS analysis; format: ADME, Microsome; details: read-out: CLH
[5] = Solubility of the compound by LYSA; format: physicochemical
[6] = Intrinsic clearance in human hepatocytes assessed per million cells at 1 uM preincubated for 1 hr followed by NADPH addition and measured by LC/MS/MS analysis; format: ADME, cell-based, Hepatocyte; details: read-out: CLH
[7] = Intrinsic clearance in rat hepatocytes assessed per million cells at 1 uM preincubated for 1 hr followed by NADPH addition and measured by LC/MS/MS analysis; format: ADME, cell-based, Hepatocyte; details: read-out: CLH
Cytochrome P450 3A4 [8] = target: T2, Cytochrome P450 3A4 (Homo sapiens, UniProt P08684); experiment: Time-dependent inhibition of CYP3A4 (unknown origin); format: ADME
T2 sequence (P08684 whole entry): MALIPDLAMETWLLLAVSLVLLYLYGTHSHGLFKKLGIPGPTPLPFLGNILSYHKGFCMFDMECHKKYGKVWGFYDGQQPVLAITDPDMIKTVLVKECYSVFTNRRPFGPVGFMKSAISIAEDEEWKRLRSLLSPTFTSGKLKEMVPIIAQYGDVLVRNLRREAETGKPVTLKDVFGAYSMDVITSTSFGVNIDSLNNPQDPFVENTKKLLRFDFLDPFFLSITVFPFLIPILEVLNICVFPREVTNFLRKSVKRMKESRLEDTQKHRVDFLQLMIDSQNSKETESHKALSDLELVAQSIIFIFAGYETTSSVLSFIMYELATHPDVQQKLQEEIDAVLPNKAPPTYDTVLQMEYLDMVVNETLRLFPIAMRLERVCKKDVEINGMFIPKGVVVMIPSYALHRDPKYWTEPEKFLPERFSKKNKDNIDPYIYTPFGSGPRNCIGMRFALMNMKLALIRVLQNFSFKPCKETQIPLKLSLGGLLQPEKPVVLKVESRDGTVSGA

Cytochrome P450 3A4 [9] = target: T2, Cytochrome P450 3A4; experiment: Inhibition of CYP3A4 (unknown origin); format: ADME
Cytochrome P450 2D6 = Cytochrome P450 2D6 (Homo sapiens, UniProt P10635); experiment: Inhibition of CYP2D6 (unknown origin); format: ADME
Chain of Cytochrome P450 2D6 (P10635 whole entry): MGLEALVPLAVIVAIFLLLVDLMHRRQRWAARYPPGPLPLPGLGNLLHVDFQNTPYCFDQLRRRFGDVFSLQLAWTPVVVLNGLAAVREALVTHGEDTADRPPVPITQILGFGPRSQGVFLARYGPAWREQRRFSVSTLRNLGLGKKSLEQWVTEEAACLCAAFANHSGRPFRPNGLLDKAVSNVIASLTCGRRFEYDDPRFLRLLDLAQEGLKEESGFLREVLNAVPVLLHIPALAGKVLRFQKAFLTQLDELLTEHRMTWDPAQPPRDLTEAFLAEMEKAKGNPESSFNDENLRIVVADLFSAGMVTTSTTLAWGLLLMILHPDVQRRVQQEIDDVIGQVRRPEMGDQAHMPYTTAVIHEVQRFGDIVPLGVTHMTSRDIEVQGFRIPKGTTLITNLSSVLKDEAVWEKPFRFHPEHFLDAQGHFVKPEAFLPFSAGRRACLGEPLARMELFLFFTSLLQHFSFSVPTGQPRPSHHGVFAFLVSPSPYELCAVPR

Cytochrome P450 2C9 = Cytochrome P450 2C9 (Homo sapiens, UniProt P11712); experiment: Inhibition of CYP2C9 (unknown origin); format: ADME
Chain of Cytochrome P450 2C9 (P11712 whole entry): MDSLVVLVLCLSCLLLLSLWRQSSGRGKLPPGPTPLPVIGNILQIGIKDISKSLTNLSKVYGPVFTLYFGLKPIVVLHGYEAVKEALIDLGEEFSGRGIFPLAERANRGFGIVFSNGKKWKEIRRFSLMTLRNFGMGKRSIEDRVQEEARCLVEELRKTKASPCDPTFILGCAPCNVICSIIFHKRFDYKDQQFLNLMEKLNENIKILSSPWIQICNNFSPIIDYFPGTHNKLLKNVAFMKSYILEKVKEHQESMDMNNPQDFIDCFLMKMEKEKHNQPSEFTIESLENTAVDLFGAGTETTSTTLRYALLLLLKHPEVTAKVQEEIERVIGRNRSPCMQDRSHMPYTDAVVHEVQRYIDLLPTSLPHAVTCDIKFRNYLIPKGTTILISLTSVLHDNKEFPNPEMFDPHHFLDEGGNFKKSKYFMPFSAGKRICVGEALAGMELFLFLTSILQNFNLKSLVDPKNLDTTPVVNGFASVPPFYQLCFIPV

Row | SMILES | IC50 [1] | IC50 [2] | microsomal CLint at 1 µM [3] | microsomal CLint at 1 µM [4] | solubility [5] | hepatocyte CLint at 1 µM [6] | hepatocyte CLint at 1 µM [7] | TDI (Cytochrome P450 3A4 [8]) | INH (Cytochrome P450 3A4 [9]) | INH (Cytochrome P450 2D6) | INH (Cytochrome P450 2C9)
1 | Cn1nc(-c2cccc(-n3ncc4cc(C(C)(C)C)cc(F)c4c3=O)c2CO)cc(Nc2ccc(C(=O)N3CCOCC3)cn2)c1=O | < 1 nM | 23 nM | 20 µL/min/mg | 29 µL/min/mg | 1.1 µg/mL (≈ 1.72 µM) | 0.3 µL/min/1e6 cells | 2 µL/min/1e6 cells | 0% | > 10 µM | > 10 µM | > 10 µM
2 | Cn1c2c(cc(Nc3ccc(C(=O)N4CCOCC4)cn3)c1=O)-c1cccc(-n3ncc4cc(C(C)(C)C)cc(F)c4c3=O)c1C[C@H](O)C2 |  |  |  |  |  |  |  | Not Active |  |  | 
3 | Cn1c2c(cc(Nc3ccc(C(=O)N4CCOCC4)cn3)c1=O)-c1cccc(-n3ncc4cc(C(C)(C)C)cc(F)c4c3=O)c1CC(O)C2 (racemic) |  |  | 29 µL/min/mg | 19 µL/min/mg | 1 µg/mL (≈ 1.5 µM) | 0.3 µL/min/1e6 cells | 3.3 µL/min/1e6 cells | 0% | > 7 µM | > 7 µM | > 7 µM
